Laboratory results: patent US20240150277A1, “Covalent PPARG inverse-agonists” (Bayer Aktiengesellschaft, priority 2022, published 2024)
Like-named read-outs stand apart in the source and are kept apart here.

How the values were obtained:
PPARG receptors = molecular target: T1, PPARG receptors (Homo sapiens, UniProt P37231); assay: RT-112-FABP4-NLuc Reporter Gene Assay (inverse agonism); format: cell-based; settings: incubated over night; for IC50 / PPARG_RT-112_FABP4_NLuc_inverse agonist Efficacy - [%]: bladder cancer cell line RT-112/84, NanoLuc in FABP4 3′ UTR; for IC50: 50 μM to 0.03 nM; for Emax: RT112/84, read-out: PPARG_RT-112_FABP4_NLuc_inverse agonist Efficacy - [%], bladder cancer cell line RT-112/84, NanoLuc in FABP4 3′ UTR
T1 construct: leading to PPARG dependent expression of the NanoLuc@ Luciferase; endogenous in cells
T1 sequence (P37231 1-505): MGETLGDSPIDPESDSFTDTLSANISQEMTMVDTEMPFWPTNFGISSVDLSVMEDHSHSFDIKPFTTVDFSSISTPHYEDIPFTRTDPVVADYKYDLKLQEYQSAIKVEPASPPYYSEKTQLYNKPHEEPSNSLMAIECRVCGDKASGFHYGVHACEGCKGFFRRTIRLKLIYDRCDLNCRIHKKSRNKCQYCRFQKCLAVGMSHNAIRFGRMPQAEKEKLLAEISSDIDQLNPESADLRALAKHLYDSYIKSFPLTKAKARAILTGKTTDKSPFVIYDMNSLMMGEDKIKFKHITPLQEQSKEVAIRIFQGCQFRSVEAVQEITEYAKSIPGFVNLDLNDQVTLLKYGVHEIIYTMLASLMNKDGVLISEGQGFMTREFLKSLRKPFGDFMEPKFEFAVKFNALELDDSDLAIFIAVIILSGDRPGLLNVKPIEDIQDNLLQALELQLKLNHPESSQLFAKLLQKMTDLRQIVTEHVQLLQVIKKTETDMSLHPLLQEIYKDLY
Description: Inverse agonists reduce the basal expression of the Luciferase resulting in a decrease of the Luciferase signal after addition of substrate and cell lysis. To exclude toxic effects of the compounds a parallel measurement of cell viability was performed based on the CellTiter Glo Assay (Promega).
On the next day 10 μl of test compounds dissolved in DMEM/F12 2% FBS and 0,01% BSA are placed in the wells of the microtiter plates. Final concentrations ranged from 50 μM to 0.03 nM. […] On the next day the NanoLuc Luciferase activity was measured by addition of 40 μl of NanoLuc substrate and lysis buffer (Promega, Madison, Wisconsin) diluted in 2 mM Ca-tyrode buffer (20 mM HEPES, 130 mM NaCl, 5 mM KCl, 5 mM NaHCO3, 2 mM MgCl2, pH 7,4). The resulting light signal was measured for 60 seconds in a luminometer. Every sample was tested in quadruples and mean values were used to calculate the IC50 values and efficacies of the compounds.

UMUC9 cells = assay: Proliferation UMUC9 H2B-GFP assay (Incucyte); format: cell-based; settings: 7 days of treatment; for Emax: UM-UC-9, 168 h, % efficacy (span); for IC50: Day 1 subtracted, percentage of DMSO control
Description: Proliferation UMUC9 H2B-GFP assay
Instrument: Incucyte® (Sartorius).
Description: Incucyte® Proliferation Assay measures cell proliferation based on nuclei count using live-cell time-lapse imaging. […] Measurements were performed on the day of treatment (Day 1 reading) and after 7 days of treatment (Day 8 reading). Green fluorescence in cell nuclei is measured using the instrument (Image Channels: Phase, Green; Acquisition time: 300 ms; Magnification: 4×).
Analysis: Selected metrics for analysis: Phase Object Confluence (Percent), Nuclei Count (1/Well) and Total Nuclei Area (μm^2/Well). Day 1 measurements were subtracted from each Day 8 measurement and expressed as percentage of the vehicle (DMSO) control. Percentage proliferation values were then plotted against compound concentration using GraphPad PRISM software. The Sigmoidal 4PL X is log (concentration) model of […] was used. Relative IC50 values and % efficacy (span) is reported below.

[1] = PPARG_RT-112_FABP4_NLuc_inverse agonist IC50 - [mol/l]
[2] = read-out: PPARG_RT-112_FABP4_NLuc_inverse agonist IC50 - [mol/l]

| Structure (SMILES) | IC50 (PPARG receptors; [1]) [nM] | PPARG_RT-112_FABP4_NLuc_inverse agonist Efficacy - [%] (PPARG receptors) | Emax (PPARG receptors) [%] | IC50 (PPARG receptors; [2]) [nM] | Emax (UMUC9 cells) [%] | IC50 (UMUC9 cells; UM-UC-9, relative IC50) [nM] | IC50 (UMUC9 cells; relative IC50, read-out: UM-UC-9 GFP proliferation IC50 -) [nM] |
| --- | --- | --- | --- | --- | --- | --- | --- |
| Cc1cc(C(F)(F)F)ccc1NC(=O)c1cc(C(=O)NC(CO)c2ccccc2)c(F)cc1Cl (single isomer, unassigned) [Example 30, 4-chloro-6-fluoro-N^1-[(1R*)-2-hydroxy-1-phenylethyl]-N^3-[2-methyl-4-(trifluoromethyl)phenyl]benzene-1,3-dicarboxamide] | 17.5 | 105.50 | – | – | 49.6 | 66.1 | – |
| O=C(NCc1ccc(F)c(F)c1)c1cc(C(=O)Nc2ccc(OC(F)F)cc2)c(Cl)cc1F [Example 3, 4-chloro-N^3-[4-(difluoromethoxy)phenyl]-N^1-[(3,4-difluorophenyl)methyl]-6-fluorobenzene-1,3-dicarboxamide] | 3.15 | – | 90.5 | – | – | > 6000 | – |
| Cc1cc(N2CCCC(O)C2)ccc1NC(=O)c1cc(C(=O)NCc2ccc(F)c(F)c2)c(F)cc1Cl (centres unmarked) [Example 11, 4-chloro-N^1-[(3,4-difluorophenyl)methyl]-6-fluoro-N^3-{4-[3-hydroxypiperidin-1-yl]-2-methylphenyl}benzene-1,3-dicarboxamide] | 4.2 | – | 103 | – | 104 | 8.23 | – |
| COCCOCc1cc(F)ccc1CNC(=O)c1cc(C(=O)Nc2ccc(C(F)(F)F)cc2C)c(Cl)cc1F [Example 26, 4-chloro-6-fluoro-N^1-({4-fluoro-2-[(2-methoxyethoxy)methyl]phenyl}methyl)-N^3-[2-methyl-4-(trifluoromethyl)phenyl]benzene-1,3-dicarboxamide] | – | – | 94 | 7.35 | 73.4 | 27.5 | – |
| O=C(NCc1ccc(F)c(F)c1)c1ccc(Cl)c(C(=O)Nc2ccccc2)c1 [Example 44, 4-chloro-N^1-[(3,4-difluorophenyl)methyl]-N^3-phenylbenzene-1,3-dicarboxamide] | – | – | 51.5 | 7400 | 103 | – | – |
| CCCOCc1cc(F)ccc1CNC(=O)c1cc(C(=O)Nc2ccc(C(F)(F)F)cc2C)c(Cl)cc1F [Example 4, 4-chloro-6-fluoro-N^1-{[4-fluoro-2-(propoxymethyl)phenyl]methyl}-N^3-[2-methyl-4-(trifluoromethyl)phenyl]benzene-1,3-dicarboxamide] | 8.35 | – | 87 | – | 138 | 3.22 | – |
| Cc1ccccc1NC(=O)c1cc(C(=O)NCc2ccccc2)c(F)cc1Cl [Example 25, N1-benzyl-4-chloro-6-fluoro-N^3-(2-methylphenyl)benzene-1,3-dicarboxamide] | 40 | – | 99.3 | – | – | > 6000 | – |
| Cc1cc(N2CCCC(O)C2)ccc1NC(=O)c1cc(C(=O)NCc2ccc(F)c(F)c2)c(F)cc1Cl (single isomer, unassigned) [Example 6, 4-chloro-N′-[(3,4-difluorophenyl)methyl]-6-fluoro-N^3-{4-[3-hydroxypiperidin-1-yl]-2-methylphenyl}benzene-1,3-dicarboxamide] | 4.1 | 134.50 | – | – | 79.5 | – | 21.7 |
| Cc1ccccc1CNC(=O)c1ccc(Cl)c(C(=O)Nc2ccccc2)c1 [Example 47, 4-chloro-N^1-[(2-methylphenyl)methyl]-N^3-phenylbenzene-1,3-dicarboxamide] | 895 | – | 92 | – | 66.9 | 2240 | – |

Continued by falling IC50 (PPARG receptors; [1]), values first:

| IC50 (PPARG receptors; [1]) [nM] | PPARG_RT-112_FABP4_NLuc_inverse agonist Efficacy - [%] (PPARG receptors) | Emax (PPARG receptors) [%] | IC50 (PPARG receptors; [2]) [nM] | Structure (SMILES) | Emax (UMUC9 cells) [%] | IC50 (UMUC9 cells; UM-UC-9, relative IC50) [nM] | IC50 (UMUC9 cells; relative IC50, read-out: UM-UC-9 GFP proliferation IC50 -) [nM] |
| --- | --- | --- | --- | --- | --- | --- | --- |
| 1.5 | – | 96 | – | Cc1c(F)c(C(=O)NCc2ccc(F)c(F)c2)cc(C(=O)Nc2ccc(OCC(C)(C)O)cn2)c1Cl [Example 52, 4-chloro-N^1-[(3,4-difluorophenyl)methyl]-6-fluoro-N^3-[5-(2-hydroxy-2-methylpropoxy)pyridin-2-yl]-5-methylbenzene-1,3-dicarboxamide] | 28.6 | 746 | – |
| 1.48 | – | 142 | – | O=C(NCc1ccc(F)cc1)c1cc(C(=O)Nc2ccc(Oc3ccccc3)cn2)c(Cl)cc1F [Example 21, 4-chloro-6-fluoro-N^1-[(4-fluorophenyl)methyl]-N^3-(5-phenoxypyridin-2-yl)benzene-1,3-dicarboxamide] | 56.1 | 10.6 | – |
| 1.4 | – | 102 | – | Cc1cc(OC(F)F)ccc1NC(=O)c1cc(C(=O)NCc2ccc(F)c(F)c2)cc(Cl)c1Cl [Example 7, 4,5-dichloro-N^3-[4-(difluoromethoxy)-2-methylphenyl]-N^1-[(3,4-difluorophenyl)methyl]benzene-1,3-dicarboxamide] | 64.9 | 9.09 | – |
| 1.3 | – | 71 | – | Cc1ccccc1CNC(=O)c1cc(Cl)c(Cl)c(C(=O)Nc2ccccc2)c1 [Example 17, 4,5-dichloro-N^1-[(2-methylphenyl)methyl]-N^3-phenylbenzene-1,3-dicarboxamide] | 28.3 | 1.52 | – |
| 1.26 | – | 97.5 | – | O=C(NCc1ccc(F)c(F)c1)c1cc(C(=O)Nc2cnc(Oc3ccccc3)cn2)c(Cl)cc1F [Example 36, 4-chloro-N^1-(3,4-difluorobenzyl)-6-fluoro-N^3-(5-phenoxypyrazin-2-yl)isophthalamide] | 66 | 5.98 | – |
| 1.22 | – | 144 | – | COCCOc1ccc(NC(=O)c2cc(C(=O)NCc3ccc(F)c(F)c3)c(F)c(C)c2Cl)c(C)c1 [Example 19, 4-chloro-N^1-[(3,4-difluorophenyl)methyl]-6-fluoro-N^3-[4-(2-methoxyethoxy)-2-methylphenyl]-5-methylbenzene-1,3-dicarboxamide] | 65.9 | 11.6 | – |
| 1.05 | – | 94 | – | O=C(NCc1ccccc1)c1cc(Cl)c(Cl)c(C(=O)Nc2ccc(C3COC3)cc2)c1F [Example 33, N^1-benzyl-4,5-dichloro-2-fluoro-N3-[4-(oxetan-3-yl)phenyl]benzene-1,3-dicarboxamide] | 59.8 | 4.91 | – |
| 0.99 | – | 72.5 | – | O=C(NCc1ccccc1)c1cc(Cl)c(Br)c(C(=O)Nc2ccccc2)c1 [Example 49, N^1-benzyl-4-bromo-5-chloro-N^3-phenylbenzene-1,3-dicarboxamide] | 34.5 | 3170 | – |
| 0.73 | – | 98.5 | – | COc1ccccc1CNC(=O)c1cc(Cl)c(Cl)c(C(=O)Nc2ccc(N3CCOCC3)cn2)c1 [Example 38, 4,5-dichloro-N^1-(2-methoxybenzyl)-N^3-(5-morpholinopyridin-2-yl)isophthalamide] | 49.5 | 4.23 | – |
| 0.42 | – | 82.5 | – | O=C(NCc1ccc(F)c(F)c1)c1cc(Cl)c(Cl)c(C(=O)Nc2ccc(C3CC3)cn2)c1 [Example 14, 4,5-dichloro-N^3-(5-cyclopropylpyridin-2-yl)-N^1-[(3,4-difluorophenyl)methyl]benzene-1,3-dicarboxamide] | 85 | 1570 | – |
| 0.355 | – | 105 | – | Cc1cccc(-c2nc3cc(NC(=O)c4cc(C(=O)NCc5ccc(F)cc5)cc(Cl)c4Cl)ccc3o2)c1 [Example 9, 4,5-dichloro-N^1-[(4-fluorophenyl)methyl]-N^3-[2-(3-methylphenyl)-1,3-benzoxazol-5-yl]benzene-1,3-dicarboxamide] | 58.1 | 4.51 | – |
